These results are taken from the supplement of paper PMC10307832.

Holding throughout (assay): relative viability (nuclei count vs DMSO), 5 days (fraction); higher = more cells survive
Compound in the assay “Motesanib + Lapatinib”: CC1(C)CNc2cc(NC(=O)c3cccnc3NCc3ccncc3)ccc21 [Motesanib] + CS(=O)(=O)CCNCc1ccc(-c2ccc3ncnc(Nc4ccc(OCc5cccc(F)c5)c(Cl)c4)c3c2)o1 [Lapatinib] (partner 2 µM)
A digest of the protocol: (§1)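 Dosing by pin tool came one day after lung cancer cell lines were seeded in 1536-well plates, using either one drug or a fixed anchor-drug dose plus five library-drug doses (not always all listed) in √10 steps. After 5 days, nuclei were counted on 4× images. Relative viability is treated-well nuclei count divided by vehicle-well nuclei count, and values are medians of duplicate plates.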

Compound in the assay “Motesanib + Linsitinib”: CC1(C)CNc2cc(NC(=O)c3cccnc3NCc3ccncc3)ccc21 [Motesanib] + C[C@]1(O)C[C@@H](c2nc(-c3ccc4ccc(-c5ccccc5)nc4c3)c3c(N)nccn32)C1 [Linsitinib] (partner 1 µM)
A digest of the protocol:
as §1

Compound in assay [1]: C[C@@]1(C(=O)Nc2ccc(F)nc2)CCCN1c1nc(Nc2cc(C3CC3)n[nH]2)c2cccn2n1 + Cc1cc(Nc2cc(N3CCN(C)CC3)nc(Sc3ccc(NC(=O)C4CC4)cc3)n2)n[nH]1 [Tozasertib] (partner 0.1 µM)
A digest of the protocol: as §1

Compound in assay [2]: C[C@@]1(C(=O)Nc2ccc(F)nc2)CCCN1c1nc(Nc2cc(C3CC3)n[nH]2)c2cccn2n1 + Nc1ncn([C@H]2C[C@H](O)[C@@H](CO)O2)c(=O)n1 [Decitabine] (partner 2 µM)
A digest of the protocol:
as §1

For the cell line UMC-11, the relative viability in the assay with Motesanib + Lapatinib (first compound 0.01 µM) was 0.901; with Motesanib + Lapatinib (first compound 0.03162 µM) it was 1.07; with Motesanib + Lapatinib (first compound 0.1 µM), 0.724; with Motesanib + Lapatinib (first compound 0.3162 µM), 1; in the assay with Motesanib + Lapatinib (first compound 1 µM), 1.08; in the assay with Motesanib + Linsitinib (first compound 0.01 µM), 0.984. For the same cell line, the relative viability in the assay with Motesanib + Linsitinib (first compound 0.03162 µM) worked out at 0.985; with Motesanib + Linsitinib (first compound 0.1 µM) it was 1.04; in the assay with Motesanib + Linsitinib (first compound 0.3162 µM) it was 1; in the assay with Motesanib + Linsitinib (first compound 1 µM), 1.13; in assay [1] (first compound 0.04 µM) it was 0.2; in assay [1] (first compound 0.1265 µM), 0.203. Moreover, the relative viability in assay [1] (first compound 0.4 µM) was 0.204; in assay [1] (first compound 1.265 µM), 0.184; in assay [2] (first compound 0.04 µM), 0.638; in assay [2] (first compound 0.1265 µM), 0.45; in assay [2] (first compound 0.4 µM) it was 0.317; in assay [2] (first compound 1.265 µM), 0.646.
